Laboratory results reported in patent US8541200B2, “Cleavage of fusion proteins using Granzyme B protease” (Hoffmann-La Roche Inc., priority 2003, dated 2013).
Values joined by “and” are separate entries in the source; they are usually repeats but may differ in a detail not shown here. Identical values can stand only once.

How the values were obtained:
Type in all cases: biochemical
[1] = Colorimetric Granzyme B activity assay with Ac-IEPD-pNA (absorbance at 405 nm)
Procedure: GrB-H6 activity was measured using the following mix: 500 μl buffer, 2 μl 100 mM Ac-IEPD-pNA, and 5 μl GrB-H6.
Recombinant self-activating human Granzyme B derivatives IEPD-GrB-H6 and IEAD-GrB-H6 were produced as described in Example 2 by using the expression vectors pT7-IEPD-GrB-H6 and pT7-IEAD-GrB-H6 described in Example 1. The IEAD-GrB-H6 and IEPD-GrB-H6 proteins were eluted from the SP Sepharose columns and stored at 4° C. for 2 days before the activity of the respective top fractions were determined by using a colorimetric assay. For this purpose the following was mixed: 500 μl buffer (100 mM HEPES pH 7.5), 2 μl 100 mM Ac-IEPD-pNA, and 5 μl protein solution. The change in absorption was then determined at 405 nm during 3 min. The activity was further determined after additional incubation for 1 and 2 days at 4° C.
The activity of the activated and purified GrB-H6 was measured in different buffers using the Ac-IEPD-pNA substrate: 500 μl buffer, 2 μl 100 mM Ac-IEPD-pNA, and 5 μl GrB-H6. The ΔOD405/min was calculated from the first 0.75 min unless otherwise noted.

[2] = Steady state kinetic parameters KM and kcat, Lineweaver-Burk plot; details: 100 mM HEPES pH 7.75; 20 nM protease
Procedure: To estimate the steady state kinetic parameters KM and kcat, the same colorimetric assay as described above was used with a total volume of 500 μl in the assay cuvette. The assay buffer was 100 mM HEPES pH 7.75, and both GrB-H6 and GrB-H6 C228F were used in a concentration of 20 nM in each measurement. To construct a Lineweaver-Burk plot the following substrate concentrations were used: 5, 40, 150, 300, and 600 μM.

[3] = Specificity on chromogenic substrates; details: 400 μM substrate, 1 μg protease, 100 mM HEPES pH 7.75; normalized to Ac-IEPD-pNA = 100%
Procedure: The activity assay was carried out in 500 μl 100 mM HEPES pH 7.75 with a substrate concentration of 400 μM and 1 μg protease added for each measurement. All measurements were done at 23° C. and in triplicate, and the activities obtained were normalized by setting the activity measured on Ac-IEPD-pNA to 100%.
The specificity of both the GrB-H6 and the GrB-H6 C228F protease was examined using the chromogenic substrates Ac-LEED-pNA, Ac-VEID-pNA, Ac-YVAD-pNA, and Ac-DEVD-pNA, in addition to the Ac-IEPD-pNA substrate applied in Example 4. The activity assay was again carried out in 500 μl 100 mM HEPES pH 7.75 with a substrate concentration of 400 μM. For each measurement 1 μg of protease was added to the assay cuvette. All measurements were done in triplicate, and the activities obtained were normalized by setting the activity measured on Ac-IEPD-pNA to 100%.

GrB-H6: activated human Granzyme B with C-terminal hexa-His tag, from cleavage/activation of pro-IEGR-GrB-H6 by FXa
Activity (ΔOD405/min) ([1]; 50 mM NaCl, 25 mM Tris-HCl pH 7.4, 0.5 μg GrB-H6): 0.1948 ΔOD405/min | Activity (ΔOD405/min) ([1]; 100 mM HEPES pH 7.2, 0.5 μg GrB-H6): 0.1970 ΔOD405/min | Activity (ΔOD405/min) ([1]; 100 mM HEPES pH 7.4 + 50 mM KCl, 0.5 μg GrB-H6): 0.2167 ΔOD405/min | Activity (ΔOD405/min) ([1]; 100 mM HEPES pH 7.4 + 50 mM NaCl, 0.5 μg GrB-H6): 0.1993 ΔOD405/min and 0.1938 ΔOD405/min | Activity (ΔOD405/min) ([1]; 100 mM HEPES pH 7.4, 0.5 μg GrB-H6): 0.2273 ΔOD405/min and 0.2328 ΔOD405/min | Activity (ΔOD405/min) ([1]; 100 mM HEPES pH 7.5 + 5 mM Ca^2+, 0.5 μg GrB-H6): 0.2425 ΔOD405/min | Activity (ΔOD405/min) ([1]; 100 mM HEPES pH 7.5, 0.5 μg GrB-H6): 0.2350 ΔOD405/min | Activity (ΔOD405/min) ([1]; 100 mM KCl, 50 mM Tris-HCl pH 7.4, 0.5 μg GrB-H6): 0.1662 ΔOD405/min | Activity (ΔOD405/min) ([1]; 100 mM NaCl, 50 mM Tris-HCl pH 7.4, 0.5 μg GrB-H6): 0.1682 ΔOD405/min | GrB activity, before FXa removal ([1]; 100 mM NaCl, 50 mM Tris-HCl pH 8.0): 0.1401 ΔOD405/min | GrB activity, after FXa removal ([1]; 100 mM NaCl, 50 mM Tris-HCl pH 8.0, top fraction of SP Sepharose eluate): 0.2213 ΔOD405/min | Activity (ΔOD405/min) ([1]; TN pH 7.0, 1 μg GrB-H6): 0.2794 ΔOD405/min | Activity (ΔOD405/min) ([1]; TN pH 7.4 + 5 mM Ca^2+, 0.5 μg GrB-H6): 0.1401 ΔOD405/min | Activity (ΔOD405/min) ([1]; TN pH 7.4 + 5 mM Mg^2+, 0.5 μg GrB-H6): 0.1491 ΔOD405/min | Activity (ΔOD405/min) ([1]; TN pH 7.4 + 0.1% TWEEN20, 0.2 μg GrB-H6, (3 min)): 0.0303 (3 min) ΔOD405/min | Activity (ΔOD405/min) ([1]; TN pH 7.4 + 0.1% TWEEN20, 0.5 μg GrB-H6): 0.0887 ΔOD405/min | Activity (ΔOD405/min) ([1]; TN pH 7.4, 0.2 μg GrB-H6, (3 min)): 0.0245 (3 min) ΔOD405/min | Activity (ΔOD405/min) ([1]; TN pH 7.4, 0.5 μg GrB-H6): 0.0835 ΔOD405/min and 0.1082 ΔOD405/min | Activity (ΔOD405/min) ([1]; TN pH 7.4, 1 μg GrB-H6): 0.2624 ΔOD405/min and 0.2930 ΔOD405/min | Activity (ΔOD405/min) ([1]; TN pH 8.1, 1 μg GrB-H6, (1 min)): 0.2213 (1 min) ΔOD405/min | best buffer for activity of the buffers evaluated ([1]; buffers of Table 6): 100 mM HEPES pH 7.4-7.5 | Km [2]: 66.9 µM | kcat [2]: 5.03 s⁻¹ | specificity on chromogenic substrates [3]: at least as specific as the GrB-H6 C228F protease
